# Experimental data published in patent US7105508B1, “Integrin receptors antagonists” (Abbott GmbH & Co. KG, priority 1999, dated 2006).
# Biological target: T1, integrin αvβ3 (Homo sapiens, UniProt P05106+P06756)
# T1 construct: from tissue; host or cells: human placenta
# Assay: Integrin αvβ3 assay (competition with vitronectin for solid phase-bound integrin αvβ3)
# Details: competition with human vitronectin for binding to solid phase-bound integrin αvβ3 from human placenta; qualitative ranking only
# Procedure: Integrin αvβ3 antagonists were identified and assessed by using an assay system based on competition between the natural integrin αvβ3 ligand vitronectin and the test substance for binding to solid phase-bound integrin αvβ3.
# • Coat microtiter plates with 250 ng/ml integrin αvβ3 in 0.05 M NaHCO3 pH 9.2; 0.1 ml/well; • saturate with 1% milk powder/assay buffer; 0.3 ml/well; 0.5 h/RT • wash 3× with 0.05% Tween 20/assay buffer • test substance in 0.1% milk powder/assay buffer, 50 μl/well+0 μg/ml or 2 μg/ml human vitronectin (Boehringer Ingelheim T007) in 0.1% milk powder/assay buffer, 50 μl/well; 1 h/RT • wash 3× with 0.05% Tween 20/assay buffer • 1 μg/ml anti-human vitronectin antibody coupled to peroxidase (Kordia SAVN-APHRP) in 0.1% milk powder/assay buffer; 0.1 ml/well; 1 h/RT • wash 3× with 0.05% Tween 20/assay buffer • 0.1 ml/well peroxidase substrate • stop reaction with 0.1 ml/well 2 M H2SO4 • measure absorption at 450 nm
# Integrin αvβ3: human placenta is solubilized with Nonidet, and integrin αvβ3 is affinity-purified on a GRGDSPK matrix (elution with EDTA). Contamination by integrin αIIbβ3 and human serum albumin, and the detergent and EDTA, are removed by anion exchange chromatography.
# Assay buffer: 50 mM Tris pH 7.5; 100 mM NaCl; 1 mM CaCl2; 1 mM MgCl2; 10 μM MnCl2
# Peroxidase substrate: mix 0.1 ml of TMB solution (42 mM TMB in DMSO) and 10 ml of substrate buffer (0.1 M Na acetate, pH 4.9) and then add 14.7 μl of 3% H2O2.
# Various dilutions of the test substances are used in the assay, and the IC50 values are determined (concentration of the antagonist at which 50% of the ligand is displaced).
row,IC50 values (concentration of the antagonist at which 50% of the ligand is displaced),SMILES
1,best results,"CC(=O)OC1c2ccccc2C(=O)N(CC(=O)NCc2cnc(NC(=N)N)s2)c2ccccc21 (stereo not shown) [Example I.B.46, 5-(2-{[(2-{[Amino(imino)methyl]amino}-1,3-thiazol-5-yl)-methyl]amino}-2-oxoethyl)-6-oxo-6,11-dihydro-5H-dibenzo[b,e]-azepin-11-yl acetate]"
2,best results,"O=C(O)CC1c2ccccc2C(=O)N(CC(=O)NCc2ccc(NC(=O)NCc3ccccc3)cc2)c2ccccc21 (stereo not shown) [Example I.B.52, (5-{2-[(4-{[(Benzylamino)carbonyl]amino}benzyl)amino]-2-oxoethyl}-6-oxo-6,11-dihydro-5H-dibenzo[b,e]azepin-11-yl)acetic acid]"
3,best results,"CC(=O)OC1c2ccccc2C(=O)N(Cc2nc(C(=O)NCc3cc(CNc4ccccn4)cs3)cs2)c2ccccc21 (stereo not shown) [Example I.B.118, 6-Oxo-5-[(4-{[({4-[(2-pyridinylamino)methyl]-2-thienyl}methyl)-amino]carbonyl}-1,3-thiazol-2-yl)methyl]-6,11-dihydro-5H-dibenzo [b,e]azepin-11-yl acetate]"
4,best results,"CC(=O)OC1c2ccccc2C(=O)N(CC(=O)NCc2ccc(Nc3nc4ccccc4[nH]3)cc2)c2ccccc21 (stereo not shown) [Example I.B.37, 5-(2-{[4-(1H-Benzimidazol-2-ylamino)benzyl]amino}-2-oxoethyl)-6-oxo-6,11-dihydro-5H-dibenzo[b,e]azepin-11-yl acetate]"
